According to article PMC6149898, “GPCR Modulation of Thieno[2,3-b]pyridine Anti-Proliferative Agents” (Molecules : A Journal of Synthetic Chemistry and Natural …, 2017):

What was measured:
[1] = target: T1, CALCRL-RAMP3 (Homo sapiens, UniProt O60896+Q16602); experiment: gpcrMAX PathHunter beta-arrestin; type: cell-based
T1 construct: ProLink (beta-galactosidase enzyme-donor fragment)
Procedure: (§1) complementation (EFC) technology. […]
(§2) challenge at the EC80 concentration. […]
(§3) minutes. Vehicle concentration was 1%. […]
(§4) room temperature for 90 or 180 minutes. […]
(§5) instrument for chemiluminescent signal detection.
(§6) 11 GPCR MAX dose response, Agonist and Antagonist
(§7) Targets (60 Data points each): i) CALCRL‐RAMP3‐Antagonist
(§8) 180 minutes. Vehicle concentration was 1%. […]
(§9) hours. Vehicle concentration was 1%. Extended incubation is typically required to observe an inverse agonist response in the PathHunter arrestin assay.
(§10) Positive Allosteric Modulation Format
(§11) 1. For allosteric determination, cells were pre-incubated with sample followed by agonist induction at the EC20 concentration. […]
(§12) temperature for 90 or 180 minutes.
(§13) Antagonist/Negative Allosteric Modulation Format
(§14) 1. Compound activity was analyzed using CBIS data analysis suite (ChemInnovation, CA).

[2] = target: T2, CXCR4 (Homo sapiens, UniProt P61073); experiment: gpcrMAX PathHunter beta-arrestin; type: cell-based
T2 construct: ProLink (beta-galactosidase enzyme-donor fragment)
T2 sequence (P61073 whole entry, the tested form may be a part): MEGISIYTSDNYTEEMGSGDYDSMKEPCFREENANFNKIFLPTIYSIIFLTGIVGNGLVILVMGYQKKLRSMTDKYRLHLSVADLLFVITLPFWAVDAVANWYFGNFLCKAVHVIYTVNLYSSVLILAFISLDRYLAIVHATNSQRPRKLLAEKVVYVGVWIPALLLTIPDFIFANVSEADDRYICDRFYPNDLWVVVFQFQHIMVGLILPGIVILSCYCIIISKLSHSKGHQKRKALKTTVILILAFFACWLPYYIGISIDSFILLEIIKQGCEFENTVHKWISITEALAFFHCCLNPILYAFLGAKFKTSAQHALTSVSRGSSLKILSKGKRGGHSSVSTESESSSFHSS
Procedure: as §1, §2, §3, §4, §5, §6, §7, §8, §9, §10, §11, §12, §13, §14

[3] = target: T3, GPR35 (Homo sapiens, UniProt Q9HC97); experiment: gpcrMAX PathHunter beta-arrestin; type: cell-based
T3 construct: ProLink (beta-galactosidase enzyme-donor fragment)
T3 sequence (Q9HC97 whole entry, the tested form may be a part): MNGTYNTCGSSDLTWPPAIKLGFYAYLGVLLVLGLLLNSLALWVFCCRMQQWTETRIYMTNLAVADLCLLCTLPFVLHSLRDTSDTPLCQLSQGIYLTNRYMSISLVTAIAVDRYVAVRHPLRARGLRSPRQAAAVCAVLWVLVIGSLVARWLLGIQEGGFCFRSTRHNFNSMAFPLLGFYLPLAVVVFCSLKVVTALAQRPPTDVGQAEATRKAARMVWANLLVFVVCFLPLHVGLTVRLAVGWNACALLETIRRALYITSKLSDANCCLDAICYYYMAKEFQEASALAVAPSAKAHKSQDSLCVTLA
Procedure: as §1, §2, §3, §4, §5, §6, §7, §8, §9, §10, §11, §12, §13, §14

[4] = target: T4, HTR1B (Homo sapiens, UniProt P28222); experiment: gpcrMAX PathHunter beta-arrestin; type: cell-based
T4 construct: ProLink (beta-galactosidase enzyme-donor fragment)
T4 sequence (P28222 whole entry, the tested form may be a part): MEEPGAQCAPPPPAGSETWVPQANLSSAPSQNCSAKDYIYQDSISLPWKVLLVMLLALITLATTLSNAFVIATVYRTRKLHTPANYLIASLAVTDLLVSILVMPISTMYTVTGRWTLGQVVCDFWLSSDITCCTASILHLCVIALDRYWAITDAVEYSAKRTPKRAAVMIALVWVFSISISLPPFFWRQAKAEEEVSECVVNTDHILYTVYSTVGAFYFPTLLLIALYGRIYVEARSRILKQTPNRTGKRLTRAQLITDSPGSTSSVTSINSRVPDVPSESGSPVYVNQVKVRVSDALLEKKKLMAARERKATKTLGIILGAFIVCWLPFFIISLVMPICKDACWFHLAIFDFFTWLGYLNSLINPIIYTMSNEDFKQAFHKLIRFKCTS
Procedure: as §1, §2, §3, §4, §5, §6, §7, §8, §9, §10, §11, §12, §13, §14

[5] = target: T5, NPSR1B (Homo sapiens, UniProt Q6W5P4); experiment: gpcrMAX PathHunter beta-arrestin; type: cell-based
T5 construct: ProLink (beta-galactosidase enzyme-donor fragment)
T5 sequence (Q6W5P4 1-377 isoform Q6W5P4-4): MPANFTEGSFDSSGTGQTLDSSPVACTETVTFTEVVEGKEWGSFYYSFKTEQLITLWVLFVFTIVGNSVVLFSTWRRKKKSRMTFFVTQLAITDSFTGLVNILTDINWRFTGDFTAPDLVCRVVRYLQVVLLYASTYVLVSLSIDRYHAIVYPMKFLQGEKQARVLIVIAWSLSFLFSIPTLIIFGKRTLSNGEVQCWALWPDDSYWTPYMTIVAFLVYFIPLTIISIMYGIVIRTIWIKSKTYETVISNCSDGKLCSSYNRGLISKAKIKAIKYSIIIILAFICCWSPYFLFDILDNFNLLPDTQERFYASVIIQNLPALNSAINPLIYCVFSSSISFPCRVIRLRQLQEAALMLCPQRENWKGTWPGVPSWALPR
Procedure: as §1, §2, §3, §4, §5, §6, §7, §8, §9, §10, §11, §12, §13, §14

[6] = target: T6, PRLHR (Homo sapiens, UniProt P49683); experiment: gpcrMAX PathHunter beta-arrestin; type: cell-based
T6 construct: ProLink (beta-galactosidase enzyme-donor fragment)
T6 sequence (P49683 whole entry, the tested form may be a part): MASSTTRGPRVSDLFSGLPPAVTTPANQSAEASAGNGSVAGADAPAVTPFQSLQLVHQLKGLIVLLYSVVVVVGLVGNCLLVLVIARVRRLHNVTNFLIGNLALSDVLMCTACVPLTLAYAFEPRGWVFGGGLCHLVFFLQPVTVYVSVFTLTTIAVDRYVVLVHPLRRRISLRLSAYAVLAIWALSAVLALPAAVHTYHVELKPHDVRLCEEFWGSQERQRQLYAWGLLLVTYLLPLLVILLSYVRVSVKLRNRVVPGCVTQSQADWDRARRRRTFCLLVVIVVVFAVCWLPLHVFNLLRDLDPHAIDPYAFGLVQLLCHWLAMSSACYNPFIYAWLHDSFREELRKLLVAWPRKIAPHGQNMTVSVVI
Procedure: as §1, §2, §3, §4, §5, §6, §7, §8, §9, §10, §11, §12, §13, §14

[7] = tested on: CO:COLO 205; design: method as in earlier work; conditions: NCI-60 panel; ref [4],[5],[6],[7]; cited from earlier work
[8] = tested on: LE:K-562; design: method as in earlier work; conditions: NCI-60 panel; ref [4],[5],[6],[7]; cited from earlier work
[9] = tested on: ME:MDA-MB-435; design: method as in earlier work; conditions: NCI-60 panel; ref [4],[5],[6],[7]; cited from earlier work
[10] = tested on: LC:A549/ATCC; design: method as in earlier work; conditions: NCI-60 panel; ref [4],[5],[6],[7]; cited from earlier work
[11] = tested on: RE:ACHN; design: method as in earlier work; conditions: NCI-60 panel; ref [4],[5],[6],[7]; cited from earlier work
[12] = target: ADRA2C (Homo sapiens, UniProt P18825); experiment: gpcrMAX PathHunter beta-arrestin
Sequence of ADRA2C (P18825 whole entry): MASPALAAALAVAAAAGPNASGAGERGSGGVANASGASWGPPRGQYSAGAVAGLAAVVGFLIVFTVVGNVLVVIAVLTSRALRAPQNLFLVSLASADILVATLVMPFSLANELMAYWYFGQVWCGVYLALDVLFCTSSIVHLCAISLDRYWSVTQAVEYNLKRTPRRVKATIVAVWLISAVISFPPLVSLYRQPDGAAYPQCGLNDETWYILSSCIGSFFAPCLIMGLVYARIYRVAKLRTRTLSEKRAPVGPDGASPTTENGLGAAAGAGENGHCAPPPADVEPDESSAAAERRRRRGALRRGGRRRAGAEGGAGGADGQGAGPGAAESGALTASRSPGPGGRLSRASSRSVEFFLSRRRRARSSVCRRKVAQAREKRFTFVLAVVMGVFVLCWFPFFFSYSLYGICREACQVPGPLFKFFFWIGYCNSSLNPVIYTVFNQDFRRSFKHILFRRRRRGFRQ

[13] = target: ADRB1 (Homo sapiens, UniProt P08588); experiment: gpcrMAX PathHunter beta-arrestin
[14] = target: BDKRB1 (Homo sapiens, UniProt P46663); experiment: gpcrMAX PathHunter beta-arrestin
[15] = target: C3AR1 (Homo sapiens, UniProt Q16581); experiment: gpcrMAX PathHunter beta-arrestin
[16] = target: CALCR-RAMP3 (Homo sapiens, UniProt O60896+P30988); experiment: gpcrMAX PathHunter beta-arrestin
[17] = target: CCR4 (Homo sapiens, UniProt P51679); experiment: gpcrMAX PathHunter beta-arrestin
[18] = target: CHRM4 (Homo sapiens, UniProt P08173); experiment: gpcrMAX PathHunter beta-arrestin
[19] = target: DRD1 (Homo sapiens, UniProt P21728); experiment: gpcrMAX PathHunter beta-arrestin
[20] = target: EBI2 (Homo sapiens, UniProt P32249); experiment: gpcrMAX PathHunter beta-arrestin
[21] = target: EDG5 (Homo sapiens, UniProt O95136); experiment: gpcrMAX PathHunter beta-arrestin
[22] = target: GALR2 (Homo sapiens, UniProt O43603); experiment: gpcrMAX PathHunter beta-arrestin
[23] = target: GHSR (Homo sapiens, UniProt Q92847); experiment: gpcrMAX PathHunter beta-arrestin
Sequence of GHSR (Q92847 whole entry): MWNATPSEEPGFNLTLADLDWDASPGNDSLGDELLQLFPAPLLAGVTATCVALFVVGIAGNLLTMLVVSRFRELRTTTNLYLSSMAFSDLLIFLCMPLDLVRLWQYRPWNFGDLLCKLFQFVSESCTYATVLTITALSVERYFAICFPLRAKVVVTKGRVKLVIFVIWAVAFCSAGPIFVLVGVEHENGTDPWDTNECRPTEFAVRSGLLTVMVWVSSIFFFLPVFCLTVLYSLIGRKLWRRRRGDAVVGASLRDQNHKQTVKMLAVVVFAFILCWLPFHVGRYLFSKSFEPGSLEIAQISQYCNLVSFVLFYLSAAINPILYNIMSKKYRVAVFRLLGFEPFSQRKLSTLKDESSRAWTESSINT

[24] = target: GPR92 (Homo sapiens, UniProt Q9H1C0); experiment: gpcrMAX PathHunter beta-arrestin
[25] = target: HRH2 (Homo sapiens, UniProt P25021); experiment: gpcrMAX PathHunter beta-arrestin
[26] = target: HTR5A (Homo sapiens, UniProt P47898); experiment: gpcrMAX PathHunter beta-arrestin
Sequence of HTR5A (P47898 whole entry): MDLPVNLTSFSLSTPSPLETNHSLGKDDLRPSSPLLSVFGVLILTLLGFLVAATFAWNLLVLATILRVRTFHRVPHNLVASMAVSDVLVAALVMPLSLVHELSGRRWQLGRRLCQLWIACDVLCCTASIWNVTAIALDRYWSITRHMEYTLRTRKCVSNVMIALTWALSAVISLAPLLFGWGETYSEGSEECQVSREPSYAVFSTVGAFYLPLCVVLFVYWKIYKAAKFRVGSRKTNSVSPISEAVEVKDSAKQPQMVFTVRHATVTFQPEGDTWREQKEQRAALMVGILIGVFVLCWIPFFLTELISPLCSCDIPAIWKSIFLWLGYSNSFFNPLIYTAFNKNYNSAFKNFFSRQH

[27] = target: MCHR1 (Homo sapiens, UniProt Q99705); experiment: gpcrMAX PathHunter beta-arrestin
[28] = target: NMBR (Homo sapiens, UniProt P28336); experiment: gpcrMAX PathHunter beta-arrestin
[29] = target: OPRM1 (Homo sapiens, UniProt P35372); experiment: gpcrMAX PathHunter beta-arrestin
[30] = target: PTAFR (Homo sapiens, UniProt P25105); experiment: gpcrMAX PathHunter beta-arrestin
Sequence of PTAFR (P25105 whole entry): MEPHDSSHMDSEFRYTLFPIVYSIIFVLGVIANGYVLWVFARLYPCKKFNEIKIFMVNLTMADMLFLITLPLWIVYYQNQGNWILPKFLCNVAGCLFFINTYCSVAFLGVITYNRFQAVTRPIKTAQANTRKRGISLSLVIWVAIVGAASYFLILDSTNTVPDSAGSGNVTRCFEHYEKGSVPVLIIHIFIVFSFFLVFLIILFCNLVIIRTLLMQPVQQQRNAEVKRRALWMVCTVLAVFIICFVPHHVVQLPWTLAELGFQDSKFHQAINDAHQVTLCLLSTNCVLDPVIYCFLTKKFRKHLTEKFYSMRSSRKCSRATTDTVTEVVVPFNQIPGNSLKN

[31] = target: PTGER4 (Homo sapiens, UniProt P35408); experiment: gpcrMAX PathHunter beta-arrestin
Sequence of PTGER4 (P35408 whole entry): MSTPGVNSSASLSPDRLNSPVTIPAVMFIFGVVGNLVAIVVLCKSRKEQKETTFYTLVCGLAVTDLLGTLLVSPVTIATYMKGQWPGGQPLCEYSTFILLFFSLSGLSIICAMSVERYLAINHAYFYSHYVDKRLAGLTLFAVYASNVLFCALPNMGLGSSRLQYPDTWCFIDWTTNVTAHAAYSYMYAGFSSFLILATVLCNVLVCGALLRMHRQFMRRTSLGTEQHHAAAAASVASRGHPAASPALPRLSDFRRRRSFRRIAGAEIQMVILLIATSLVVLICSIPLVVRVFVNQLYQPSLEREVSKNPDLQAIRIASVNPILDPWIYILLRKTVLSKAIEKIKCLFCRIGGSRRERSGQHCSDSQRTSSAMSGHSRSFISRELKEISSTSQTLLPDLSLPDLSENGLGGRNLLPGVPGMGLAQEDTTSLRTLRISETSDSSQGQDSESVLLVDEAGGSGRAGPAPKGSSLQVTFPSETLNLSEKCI

[32] = target: SCTR (Homo sapiens, UniProt P47872); experiment: gpcrMAX PathHunter beta-arrestin
[33] = target: SSTR5 (Homo sapiens, UniProt P35346); experiment: gpcrMAX PathHunter beta-arrestin
[34] = target: TACR2 (Homo sapiens, UniProt P21452); experiment: gpcrMAX PathHunter beta-arrestin
Sequence of TACR2 (P21452 whole entry): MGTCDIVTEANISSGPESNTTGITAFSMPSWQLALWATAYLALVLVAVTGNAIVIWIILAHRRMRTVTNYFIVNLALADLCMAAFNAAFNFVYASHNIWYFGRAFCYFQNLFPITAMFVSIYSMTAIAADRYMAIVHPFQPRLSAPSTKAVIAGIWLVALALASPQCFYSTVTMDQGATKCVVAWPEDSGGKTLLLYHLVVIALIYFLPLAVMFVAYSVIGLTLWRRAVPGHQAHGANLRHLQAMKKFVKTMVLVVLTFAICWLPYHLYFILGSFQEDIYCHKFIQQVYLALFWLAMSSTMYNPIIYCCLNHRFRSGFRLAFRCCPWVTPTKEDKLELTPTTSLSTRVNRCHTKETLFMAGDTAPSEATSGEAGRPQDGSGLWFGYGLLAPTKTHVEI

[35] = antagonist format, dose response

T1 sequence (Q16602 23-461): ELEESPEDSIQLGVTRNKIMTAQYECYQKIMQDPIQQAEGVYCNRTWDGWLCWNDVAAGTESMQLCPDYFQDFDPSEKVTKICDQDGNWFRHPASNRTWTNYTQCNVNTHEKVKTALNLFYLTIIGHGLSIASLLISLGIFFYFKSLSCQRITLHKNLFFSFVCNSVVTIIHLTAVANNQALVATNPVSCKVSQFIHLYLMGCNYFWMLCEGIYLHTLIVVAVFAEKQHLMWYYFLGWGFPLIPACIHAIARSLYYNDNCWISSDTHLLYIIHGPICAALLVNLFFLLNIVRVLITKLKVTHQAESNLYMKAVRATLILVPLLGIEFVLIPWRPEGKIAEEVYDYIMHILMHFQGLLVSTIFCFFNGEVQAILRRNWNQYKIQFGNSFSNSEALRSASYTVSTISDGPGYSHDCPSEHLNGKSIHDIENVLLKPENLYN
T1 sequence (O60896 24-148 partner): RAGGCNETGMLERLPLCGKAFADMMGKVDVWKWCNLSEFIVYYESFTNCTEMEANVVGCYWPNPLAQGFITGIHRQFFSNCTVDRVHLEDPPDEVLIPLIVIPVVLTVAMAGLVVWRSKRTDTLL

Molecule `Cc1c(Cl)cccc1NC(=O)c1sc2nc3c(cc2c1N)C(=O)CCC3` [Compound 1] has an IC50 [1, 35] of 11900 nM, an inhibition at 10 µM ([1]; antagonist mode, 10 µM) of 63% and an IC50 [2, 35] of 6900 nM. It also gave an inhibition at 10 µM ([2]; antagonist mode, 10 µM) of 39%, an EC50 ([3]; agonist format, dose response) of 7500 nM and an inhibition at 10 µM ([3]; antagonist mode, 10 µM) of -12%. The IC50 [4, 35] was over 50000 nM, the inhibition at 10 µM ([4]; antagonist mode, 10 µM) was 42% and the IC50 [5, 35] was 1000 nM. For the same molecule, the inhibition at 10 µM ([5]; antagonist mode, 10 µM) was 59%, the IC50 [6, 35] was 9300 nM and the inhibition at 10 µM ([6]; antagonist mode, 10 µM) was 44%. The GI50 [7] was 51.8 nM, the GI50 [8] was 37.5 nM and the GI50 [9] was 18.7 nM. For the same molecule, the GI50 [10] was 63.1 nM, the GI50 [11] was 83.7 nM and the inhibition at 10 µM [12] was -14%. It also gave an inhibition at 10 µM [13] of -27%, an inhibition at 10 µM [14] of -9% and an inhibition at 10 µM [15] of -3%. The inhibition at 10 µM [16] was 17%, the inhibition at 10 µM [17] was 26% and the inhibition at 10 µM [18] was -10%. It also gave an inhibition at 10 µM [19] of 12%, an inhibition at 10 µM [20] of 4% and an inhibition at 10 µM [21] of -1%. It also gave an inhibition at 10 µM [22] of -5%, an inhibition at 10 µM [23] of -2% and an inhibition at 10 µM [24] of -28%. For the same molecule, the inhibition at 10 µM [25] was 10%, the inhibition at 10 µM [26] was 2% and the inhibition at 10 µM [27] was -77%. For the same molecule, the inhibition at 10 µM [28] was 28%, the inhibition at 10 µM [29] was -18% and the inhibition at 10 µM [30] was 2%. For the same molecule, the inhibition at 10 µM [31] was 7%, the inhibition at 10 µM [32] was 13% and the inhibition at 10 µM [33] was -3%. For the same molecule, the inhibition at 10 µM [34] was 14%.
